Structures can show the parent of a compound that is named as a salt. Where two headings read alike, the source gives them in different places.
Molecular target: AaDOP2 (Aedes aegypti, UniProt H6D5H2)
Assay: AaDOP2 antagonist screen of the LOPAC1280 library (HEK-CRELuc-Aadop2 cells, luminescence)
Assay type: cell-based
Conditions: for inhibition at 10 µM: read-out: % of the SCH23390 effect (percent inhibition of receptor response relative to the SCH23390 control)
[1] = 10 µM compound, 300 nM dopamine, 2 hr, hit = compound effect <20

Chain of AaDOP2 (H6D5H2 1-476): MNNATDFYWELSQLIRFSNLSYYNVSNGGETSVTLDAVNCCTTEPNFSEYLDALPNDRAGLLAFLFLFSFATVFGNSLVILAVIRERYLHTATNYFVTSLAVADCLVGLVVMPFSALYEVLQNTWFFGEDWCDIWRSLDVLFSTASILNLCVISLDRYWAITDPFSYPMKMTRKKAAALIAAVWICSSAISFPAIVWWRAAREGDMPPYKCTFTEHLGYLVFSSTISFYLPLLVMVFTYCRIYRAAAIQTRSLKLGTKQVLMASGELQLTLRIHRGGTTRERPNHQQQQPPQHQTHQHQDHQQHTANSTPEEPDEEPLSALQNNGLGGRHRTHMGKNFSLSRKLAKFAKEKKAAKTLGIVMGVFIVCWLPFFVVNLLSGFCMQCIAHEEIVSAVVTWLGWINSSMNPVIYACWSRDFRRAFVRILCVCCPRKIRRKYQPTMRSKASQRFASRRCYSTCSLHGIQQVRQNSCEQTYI

Row | SMILES | Compound effect (percent receptor signaling in presence of test compound, relative lux units relative to the SCH23390 control) | Compound effect (percent receptor signaling in presence of test compound, relative lux units relative to the SCH23390 control) [1] [%] | inhibition at 10 µM [%]
1 | O=c1[nH]c2ccccc2n1CCCN1CCN(C(c2ccccc2)c2ccccc2)CC1 [Compound 909, Oxatomide] | 72 |  | 
2 | Cn1cc(C2=C(c3ccc(Cl)cc3Cl)C(=O)NC2=O)c2ccccc21 [Compound 910, SB 216763] | 80 |  | 
3 | O=C(O)CCc1nc(-c2ccccc2)c(-c2ccccc2)o1 [Compound 911, Oxaprozin] | 106 |  | 
4 | C[N+](C)(C)CC#CCN1CCCC1=O [Compound 912, Oxotremorine methiodide] | 99 |  | 
5 | CC(=O)[C@H]1CC[C@H]2[C@@H]3CCC4=CC(=O)CC[C@]4(C)[C@H]3CC[C@]12C [Compound 914, Progesterone] | 77 |  | 
6 | CCCCCCCCCCCCCCCC(=O)NCCO [Compound 915, Palmitoylethanolamide] | 89 |  | 
7 | N=C(N)c1ccc(OCCCCCOc2ccc(C(=N)N)cc2)cc1 [Compound 917, Pentamidine isethionate] | 87 |  | 
8 | C=C1C(=O)O[C@H]2[C@H]1CC/C(C)=C/CC[C@@]1(C)O[C@@H]21 [Compound 919, Parthenolide] | 74 |  | 
9 | CC(C)NCC(O)COc1cccc2[nH]ccc12 (stereo not shown) [Compound 920, Pindolol] | 96 |  | 
10 | N[C@@H](COP(=O)(O)O)C(=O)O [Compound 921, O-Phospho-L-serine] |  | 102 | 
11 | CCCC(C(=O)OCCN(CC)CC)(c1ccccc1)c1ccccc1.Cl [Compound 923, SKF-525A hydrochloride] |  | 88 | 
12 | N#Cc1c(-c2ccccc2)no[n+]1[O-] [Compound 925, 4-Phenyl-3-furoxancarbonitrile] | 93 |  | 
13 | CC(=O)CCCCn1c(=O)c2c(ncn2C)n(C)c1=O [Compound 926, Pentoxifylline] | 119 |  | 
14 | O=c1[nH]c2ccccc2n1C1CCN(CCCC(c2ccc(F)cc2)c2ccc(F)cc2)CC1 [Compound 927, Pimozide] | 61 |  | 
15 | O=C(O)CC[C@@H](C(=O)O)N1C(=O)c2ccccc2C1=O [Compound 928, L-Glutamic acid, N-phthaloyl-] |  | 106 | 
16 | CC(=O)O[C@H]1C[C@@H]2CC[C@@H]3[C@H](CC[C@@]4(C)[C@H]3C[C@H]([N+]3(C)CCCCC3)[C@@H]4OC(C)=O)[C@@]2(C)C[C@@H]1[N+]1(C)CCCCC1 [Compound 929, Pancuronium bromide] | 96 |  | 
17 | C[C@]12CC[C@@H](O)C[C@@H]1CC[C@@H]1[C@@H]2CC[C@]2(C)[C@@H](C(=O)CO)CC[C@@H]12 [Compound 930, 3-alpha,21-Dihydroxy-5-alpha-pregnan-20-one] | 96 |  | 
18 | Cc1ccc(=O)n(-c2ccccc2)c1 [Compound 931, Pirfenidone] | 102 |  | 
19 | Cn1c(=O)c2[nH]c(-c3ccccc3)nc2n(C)c1=O [Compound 932, 1,3-Dimethyl-8-phenylxanthine] | 107 |  | 
20 | Cc1nc(N=Nc2cc(S(=O)(=O)[O-])c3cc([N+](=O)[O-])cc(S(=O)(=O)[O-])c3c2)c(COP(=O)([O-])[O-])c(C=O)c1O.[Na+].[Na+].[Na+].[Na+] [Compound 934, PPNDS tetrasodium] |  | 106 | 
21 | N=C1Sc2ccccc2C2=NCCCN12 [Compound 935, PD 404,182] | 101 |  | 
22 | COc1ccc(Cc2nccc3cc(OC)c(OC)cc23)cc1OC [Compound 936, Papaverine hydrochloride] | 92 |  | 
23 | C[N+]1(CCCCC[N+]2(C)CCCC2)CCCC1.O=C([O-])C(O)C(O)C(=O)O.O=C([O-])C(O)C(O)C(=O)O [Compound 937, Pentolinium di[L(+)-tartrate]] |  | 94 | 
24 | S=C(Nc1ccccc1)Nc1nccs1 [Compound 938, 1-Phenyl-3-(2-thiazolyl)-2-thiourea] | 84 |  | 
25 | C=C/C(C)=C/[C@@]1(C)SC(=O)C(C)=C1O [Compound 939, Thiolactomycin] | 96 |  | 
26 | N.N.[Cl][Pt][Cl] [Compound 940, Cisplatin] | 88 |  | 

Row | SMILES | Compound effect (percent receptor signaling in presence of test compound, relative lux units relative to the SCH23390 control) | Compound effect (percent receptor signaling in presence of test compound, relative lux units relative to the SCH23390 control) [1] [%] | inhibition at 10 µM [%]
27 | COc1cc([C@@H]2c3cc4c(cc3[C@H](O)[C@H]3COC(=O)[C@H]23)OCO4)cc(OC)c1OC [Compound 941, Podophyllotoxin] | 84 |  | 
28 | CC(C)[C@H](CO)Nc1nc(Nc2cccc(Cl)c2)c2ncn(C(C)C)c2n1 [Compound 942, Purvalanol A] | 7 |  | 93
29 | C[C@H](Cc1ccccc1)Nc1ncnc2c1ncn2[C@@H]1O[C@H](CO)[C@@H](O)[C@H]1O [Compound 944, R(-)-N6-(2-Phenylisopropyl)adenosine] | 112 |  | 
30 | CCCC(CCC)C(=O)O [Compound 945, Valproic acid sodium] | 85 |  | 
31 | O=C(C1CCCCC1)N1CC(=O)N2CCc3ccccc3C2C1 (stereo not shown) [Compound 947, Praziquantel] | 81 |  | 
32 | CCCNCC(O)COc1ccccc1C(=O)CCc1ccccc1 (stereo not shown) [Compound 948, Propafenone hydrochloride] | 74 |  | 
33 | CC(=O)[C@H]1CC[C@H]2[C@@H]3CC[C@H]4C[C@H](O)CC[C@]4(C)[C@H]3C(=O)C[C@]12C [Compound 949, 5alpha-Pregnan-3alpha-ol-11,20-dione] | 89 |  | 
34 | CN1C(C)(C)CCCC1(C)C [Compound 950, Pempidine tartrate] | 100 |  | 
35 | NC(=O)CN1CCCC1=O [Compound 951, Piracetam] | 103 |  | 
36 | C[C@@H]1O[C@@H]1P(=O)(O)O [Compound 952, Phosphomycin disodium] | 104 |  | 
37 | COc1ccc(CN(CCN(C)C)c2ccccn2)cc1 [Compound 953, Pyrilamine maleate] | 59 |  | 
38 | CN1C(C(=O)Nc2ccccn2)=C(O)c2ccccc2S1(=O)=O [Compound 954, Piroxicam] | 83 |  | 
39 | CCCn1c(=O)[nH]c(=O)c2[nH]cnc21 [Compound 955, 3-n-Propylxanthine] | 93 |  | 
40 | CNC[C@H](O)c1cccc(O)c1 [Compound 956, Phenylephrine hydrochloride] | 93 |  | 
41 | OCCN1CCN(CCCN2c3ccccc3Sc3ccc(Cl)cc32)CC1 [Compound 957, Perphenazine] | 5 |  | 95
42 | C1CCc2nnnn2CC1 [Compound 958, Pentylenetetrazole] | 94 |  | 
43 | CC[C@@H]1C(=O)OC[C@@H]1Cc1cncn1C.Cl [Compound 959, (+)-Pilocarpine hydrochloride] |  | 104 | 
44 | CC[C@@H]1C(=O)OC[C@@H]1Cc1cncn1C [Compound 960, Pilocarpine nitrate] | 96 |  | 
45 | CN(C)CCCN1c2ccccc2Sc2ccccc21 [Compound 961, Promazine hydrochloride] | 12 |  | 88
46 | NNCCc1ccccc1 [Compound 962, Phenelzine sulfate] | 93 |  | 
47 | CN(C)CCC(c1ccccc1)c1ccccn1 (stereo not shown) [Compound 963, Pheniramine maleate] | 91 |  | 
48 | O=C(O)CP(=O)(O)O [Compound 964, Phosphonoacetic acid] | 84 |  | 
49 | CCC1(c2ccccc2)C(=O)NCNC1=O [Compound 967, Primidone] | 94 |  | 
50 | CN1CCN(CC(=O)N2c3ccccc3C(=O)Nc3cccnc32)CC1 [Compound 969, Pirenzepine dihydrochloride] | 114 |  | 
51 | NCCCCN [Compound 970, Putrescine dihydrochloride] | 88 |  | 
52 | Cc1ccc(N(CC2=NCCN2)c2cccc(O)c2)cc1 [Compound 971, Phentolamine mesylate] | 42 |  | 
